# Experimental data: the supplement of paper PMC10307832
# Experiments:
# Test in all cases: relative viability (nuclei count vs DMSO), 5 days (fraction); higher = more cells survive
# [1] = compound: CC1=CC(=CC=C1)NC2=NC(=CS2)C3=CC=NC=C3 + CCNC(=O)c1noc(-c2cc(C(C)C)c(O)cc2O)c1-c1ccc(CN2CCOCC2)cc1 [Luminespib] (partner 0.01 µM)
# Procedure, shortened: (§1)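 Relative viability is defined as nuclei in treated wells over nuclei in vehicle wells. Duplicate plates were run and medians reported. Lung cancer cell lines in 1536-well plates were dosed by pin tool one day after seeding, with one drug or with a fixed anchor-drug dose plus five library-drug doses (not always all listed) in √10 steps, and nuclei were counted after 5 days.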
# Masitinib + Trametinib = compound: Cc1ccc(NC(=O)c2ccc(CN3CCN(C)CC3)cc2)cc1Nc1nc(-c2cccnc2)cs1 [Masitinib] + CC(=O)Nc1cccc(-n2c(=O)n(C3CC3)c(=O)c3c(Nc4ccc(I)cc4F)n(C)c(=O)c(C)c32)c1 [Trametinib] (partner 0.02 µM)
# Procedure, shortened: as §1
# Masitinib + Linsitinib = compound: Cc1ccc(NC(=O)c2ccc(CN3CCN(C)CC3)cc2)cc1Nc1nc(-c2cccnc2)cs1 [Masitinib] + C[C@]1(O)C[C@@H](c2nc(-c3ccc4ccc(-c5ccccc5)nc4c3)c3c(N)nccn32)C1 [Linsitinib] (partner 1 µM)
# Procedure, shortened: as §1
# Masitinib + Decitabine = compound: Cc1ccc(NC(=O)c2ccc(CN3CCN(C)CC3)cc2)cc1Nc1nc(-c2cccnc2)cs1 [Masitinib] + Nc1ncn([C@H]2C[C@H](O)[C@@H](CO)O2)c(=O)n1 [Decitabine] (partner 2 µM)
# Procedure, shortened: as §1
Cell Line,relative viability ([1]; first compound 0.08 µM),relative viability ([1]; first compound 0.253 µM),relative viability ([1]; first compound 0.8 µM),relative viability ([1]; first compound 2.53 µM),relative viability ([1]; first compound 8 µM),relative viability (Masitinib + Trametinib; first compound 0.01 µM),relative viability (Masitinib + Trametinib; first compound 0.03162 µM),relative viability (Masitinib + Trametinib; first compound 0.1 µM),relative viability (Masitinib + Trametinib; first compound 0.3162 µM),relative viability (Masitinib + Trametinib; first compound 1 µM),relative viability (Masitinib + Linsitinib; first compound 0.01 µM),relative viability (Masitinib + Linsitinib; first compound 0.03162 µM),relative viability (Masitinib + Linsitinib; first compound 0.1 µM),relative viability (Masitinib + Linsitinib; first compound 0.3162 µM),relative viability (Masitinib + Linsitinib; first compound 1 µM),relative viability (Masitinib + Decitabine; first compound 0.01 µM),relative viability (Masitinib + Decitabine; first compound 0.03162 µM),relative viability (Masitinib + Decitabine; first compound 0.1 µM),relative viability (Masitinib + Decitabine; first compound 0.3162 µM),relative viability (Masitinib + Decitabine; first compound 1 µM)
NCI-H1666,0.976,0.958,0.773,0.81,0.679,0.807,0.893,0.873,0.565,0.788,0.806,0.774,0.846,0.781,0.718,0.698,0.665,0.703,0.626,0.647
NCI-H1734,0.203,0.22,0.22,0.192,0.191,0.682,0.661,0.759,0.696,0.663,0.857,0.854,0.943,0.747,0.855,0.539,0.485,0.546,0.522,0.483
NCI-H1755,0.519,0.46,0.428,0.37,0.486,0.633,0.83,0.788,0.766,0.699,–,0.976,1,1.02,0.955,0.612,0.711,0.733,0.709,0.647
NCI-H1792,0.305,0.407,0.375,0.326,0.351,0.427,0.307,0.37,0.503,0.498,0.504,0.224,0.533,0.454,0.529,0.621,0.443,0.51,0.438,0.472
NCI-H1793,0.182,0.177,0.177,0.202,0.344,0.54,0.388,0.407,0.555,0.346,0.875,0.839,0.812,0.998,0.647,0.486,0.509,0.502,0.53,0.591
NCI-H1915,0.897,0.857,0.833,0.787,0.776,–,0.635,–,0.302,0.302,–,1.15,1.09,0.974,1.03,–,0.239,–,0.241,0.246
NCI-H1944,0.674,0.771,0.792,0.654,0.72,–,0.457,–,0.349,0.368,–,1.14,0.794,1.12,1.17,–,0.398,–,0.423,0.384
NCI-H1975,0.252,0.17,0.201,0.249,0.184,0.302,0.364,0.374,0.237,0.323,0.995,0.92,1.03,0.832,0.908,0.324,0.417,0.381,0.293,0.34
NCI-H1993,0.767,0.545,0.546,0.624,0.7,0.483,0.437,0.578,0.508,0.538,0.732,–,0.733,0.659,0.665,0.49,0.545,0.534,0.459,0.496
NCI-H2009,1.01,0.953,0.905,0.988,1.05,0.29,0.239,0.296,0.26,0.268,1.2,1.22,1.24,1.23,1.17,0.368,0.332,0.409,0.406,0.371
NCI-H2023,0.716,0.706,0.889,0.659,0.427,0.509,0.448,0.531,0.518,0.549,0.597,0.681,0.703,0.613,0.597,0.205,0.271,0.327,0.195,0.187
NCI-H2085,0.381,0.428,0.444,0.383,0.393,0.583,0.534,0.556,0.514,0.524,0.787,0.914,0.955,1.01,0.726,0.55,0.522,0.511,0.536,0.509
NCI-H2087,0.17,0.183,0.137,0.21,0.126,0.176,0.213,0.214,0.153,0.178,0.936,0.951,0.923,1.01,0.884,0.25,0.247,0.32,0.223,0.254
NCI-H2126,0.825,0.855,0.9,0.875,0.865,0.523,0.54,0.562,0.507,0.534,0.707,0.656,0.785,0.691,0.659,0.58,0.499,0.586,0.505,0.567
NCI-H2347,0.409,0.248,–,0.555,0.232,0.26,0.262,0.291,0.293,0.288,0.758,0.911,0.867,0.948,1.09,0.598,0.529,0.614,0.669,0.652
NCI-H2405,0.583,0.589,0.63,0.666,0.64,0.651,0.605,0.705,0.576,0.594,0.96,1.01,0.945,0.882,0.9,0.688,0.692,0.762,0.764,0.692
